The text below walks through data of PubChem BioAssay AID1259407 (Chemical Carcinogenesis Research Information System (CCRIS), 2018).

Calls of active or inactive are those of the source. The rule behind the calls is not given here.

The subject of this data set is CCRIS mutagenicity, Ames/micronucleus/aberration tests. Briefly: CCRIS mutagenicity studies.
[1] abbreviates: Test System: AMES SALMONELLA TYPHIMURIUM, Strain/Indicator: TA98, Metabolic Activation: NONE, Method: STANDARD PLATE.
The mark [2] stands for this setting: Test System: AMES SALMONELLA TYPHIMURIUM, Strain/Indicator: TA100, Metabolic Activation: NONE, Method: STANDARD PLATE.

With `CCOP(=O)(Oc1ccc([N+](=O)[O-])cc1)c1ccccc1` (stereo not drawn), the mutagenic call under setting [1] is “active; positive”; the mutagenic call (Test System: AMES SALMONELLA TYPHIMURIUM, Strain/Indicator: TA98, Metabolic Activation: RAT, LIVER, S-9, Method: STANDARD PLATE) is “inactive; negative”; the mutagenic call under setting [2] was “inactive; negative”; the mutagenic call (Test System: AMES SALMONELLA TYPHIMURIUM, Strain/Indicator: TA100, Metabolic Activation: RAT, LIVER, S-9, Method: STANDARD PLATE) was “inactive; negative”.
`COCCc1ccc(OCC(O)CN(N=O)C(C)C)cc1` (stereo not drawn): the mutagenic call is “active; positive” (Test System: UDS HUMAN HEPATOCYTES, Strain/Indicator: THY INCORP, Metabolic Activation: NONE, Method: AUTORADIOGRAPHY) and “active; positive” (Test System: UDS RAT HEPATOCYTES, Strain/Indicator: THY INCORP, Metabolic Activation: NONE, Method: AUTORADIOGRAPHY).
For `Cn1c2ccccc2c2ccccc21`, the mutagenic call runs as follows: under setting [1], “inactive; negative”; (Test System: AMES SALMONELLA TYPHIMURIUM, Strain/Indicator: TA98, Metabolic Activation: RAT LIVER S-9, AROCLOR 1254, Method: STANDARD PLATE) “inactive; negative”; under setting [2], “inactive; negative”; (Test System: AMES SALMONELLA TYPHIMURIUM, Strain/Indicator: TA100, Metabolic Activation: RAT LIVER S-9, AROCLOR 1254, Method: STANDARD PLATE) “active; positive”; (Test System: UDS PRIMARY RAT HEPATOCYTES, Strain/Indicator: THY-INCORP, Metabolic Activation: NONE, Method: AUTORADIOGRAPHY) “inactive; negative”.
`O=S(=O)(O)c1cc(N=Nc2ccc(O)cc2)ccc1C=Cc1ccc(N=Nc2ccc(O)cc2)cc1S(=O)(=O)O`: the mutagenic call runs as follows: (Test System: MOUSE LYMPHOMA, Strain/Indicator: L5178Y (TK+/TK-), Metabolic Activation: NONE, Method: SUSPENSION/PLATE) “inactive; negative. reevaluation of results: negative”; (Test System: MOUSE LYMPHOMA, Strain/Indicator: L5178Y (TK+/TK-), Metabolic Activation: RAT, LIVER, S-9, AROCLOR 1254, Method: SUSPENSION/PLATE) “inactive; negative. reevaluation of results: negative”.
